Data published in patent US20020026052A1, “3-cyanoquinolines, 3-cyano-1,6-naphthyridines, and 3-cyano-1,7-naphthyridines as protein kinase inhibitors” (American Home Products Corporation, priority 2000, published 2002).

Question: Which melting point does the source give for `Cn1ccnc1Sc1ccc(Nc2c(C#N)cnc3ccc(-c4ccc(N5CCOCC5)nc4)cc23)cc1Cl` [Example 184, 4-({3-Chloro-4-[(1-methyl-1H-imidazol-2-yl)sulfanyl]phenyl}amino)-6-[6-(4-morpholinyl)-3-pyridinyl]-3-quinolinecarbonitrile] here?
Answer: 276 to 278 °C

Question: With `CCN1CCN(c2ccc(-c3ccc4c(Nc5ccc(Sc6nccn6C)c(Cl)c5)c(C#N)cnc4c3)nc2)CC1` [Example 108, 4-({3-Chloro-4-[(1-methyl-1H-imidazol-2-yl)sulfanyl]phenyl}amino)-7-[5-(4-ethyl-1-piperazinyl)-2-pyridinyl]-3-quinolinecarbonitrile] as the compound, how does the melting point read?
Answer: 246 to 248 °C

Question: Which melting point does the source give for `Cn1ccnc1Sc1ccc(Nc2c(C#N)cnc3cc(-c4ccc(CN5CCC(O)CC5)cn4)ccc23)cc1Cl` [Example 172, 4-{3-Chloro-4-[(1-methyl-1H-imidazol-2-yl)sulfanyl]anilino}-7-{5-[(4-hydroxy-1-piperidinyl)methyl]-2-pyridinyl}-3-quinolinecarbonitrile] here?
Answer: 194 to 196 °C

Question: With `CCOC(=O)C1CCN(c2ccc(-c3ccc4c(Nc5ccc(Sc6nccn6C)c(Cl)c5)c(C#N)cnc4c3)cn2)CC1` [Example 213, Ethyl 1-{5-[4-({3-chloro-4-[(1-methyl-iH-imidazol-2-yl)sulfanyl]phenyl}amino)-3-cyano-7-quinolinyl]-2-pyridinyl}-4-piperidinecarboxylate] as the compound, how does the melting point read?
Answer: 253 to 255 °C

Question: For `Cn1ccnc1Sc1ccc(Nc2c(C#N)cnc3cc(-c4ccc(N5CCN(CCO)CC5)nc4)ccc23)cc1Cl` [Example 215, 4-({3-Chloro-4-[(1-methyl-1H-irnidazol-2-yl)sulfanyl]phenyl}amino)-7-{6-[4-(2-hydroxyethyl)-1-piperazinyl]-3-pyridinyl}-3-quinolinecarbonitrile], which melting point is on record?
Answer: 239 to 241 °C

Question: With `N#Cc1cnc2cc(-c3ccc(CN4CCOCC4)cn3)ccc2c1Nc1ccc(Oc2ccccc2)cc1` [Example 56, 7-[5-(4-Morpholinylmethyl)-2-pyridinyl]-4-(4-phenoxyanilino)-3-quinolinecarbonitrile] as the compound, how does the melting point read?
Answer: 219 to 221 °C

Question: Which melting point does the source give for `Cn1ccnc1Sc1ccc(Nc2c(C#N)cnc3cc(-c4ccc(CN5CCOCC5)o4)ccc23)cc1Cl` [Example 154, 4-{3-Chloro-4-[(1-methyl-1H-imidazol-2-yl)sulfanyl]anilino}-7-[5-(4-morpholinylmethyl)-2-furyl]-3-quinolinecarbonitrile] here?
Answer: 224 to 226 °C

Question: With `CN1CCN(c2ccc(-c3ccc4c(Nc5ccc(Sc6nccn6C)c(Cl)c5)c(C#N)cnc4c3)cn2)CC1` [Example 196, 4-{3-Chloro-4-[(1-methyl-1H-irnidazol-2-yl)sulfanyl]anilino}-7-[6-(4-methyl-1-piperazinyl)-3-pyridinyl]-3-quinolinecarbonitrile] as the compound, how does the melting point read?
Answer: 227 to 279 °C

Question: For `COc1cc(Nc2c(C#N)cnc3cc(-c4ccc(Cn5ccnn5)cc4)ccc23)c(Cl)cc1Cl` [Example 103, 4-[(2,4-Dichloro-5-methoxyphenyl)amino]-7-[4-(1H-1,2,3-triazol-1-ylmethyl)phenyl]-3-quinolinecarbonitrile], which melting point is on record?
Answer: 239 to 240 °C

Question: Which melting point does the source give for `CCN1CCN(Cc2cccc(-c3ccc4c(Nc5ccc(Sc6nccn6C)c(Cl)c5)c(C#N)cnc4c3)n2)CC1` [Example 201, 4-{3-Chloro-4-[(1-methyl-1H-imidazol-2-yl)sulfanyl]anilino}-7-{6-[(4-ethyl-1-piperazinyl)methyl]-2-pyridinyl}-3-quinolinecarbonitrile] here?
Answer: 214 to 216 °C

Question: With `CN(CCO)c1ccc(-c2ccc3c(Nc4ccc(Sc5nccn5C)c(Cl)c4)c(C#N)cnc3c2)cn1` [Example 216, 4-({3-Chloro-4-[(1-methyl-1H-imidazol-2-yl)sulfanyl]phenyl}amino)-7-{6-[(2-hydroxyethyl) (methyl)amino]-3-pyridinyl}-3-quinolinecarbonitrile] as the compound, how does the melting point read?
Answer: 228 °C (dec.)

Question: Which melting point does the source give for `COc1cc(Nc2c(C#N)cnc3cc(-c4cccc(CN5CCOCC5)n4)ccc23)c(Cl)cc1Cl` here?
Answer: 181 to 183 °C

Question: For `Cn1ccnc1Sc1ccc(Nc2c(C#N)cnc3cc(-c4ccc(N5CCC(N6CCCC6)CC5)nc4)ccc23)cc1Cl` [Example 210, 4-({3-Chloro-4-[(1-methyl-H-imidazol-2-yl)sulfanyl]phenyl}amino)-7-{6-[4-(1-pyrrolidinyl)-1-piperidinyl]-3-pyridinyl}-3-quinolinecarbonitrile], which melting point is on record?
Answer: 230 °C (dec.)

Question: With `Cn1ccnc1Sc1ccc(Nc2c(C#N)cnc3cc(-c4ccc(CN5CCOCC5)cc4)ccc23)cc1Cl` [Example 63, 4-{3-chloro-4-[(1-methyl-1H-imidazol-2-yl)sulfanyl]anilino}-7-[4-(4-morpholinylmethyl)phenyl]-3-quinolinecarbonitrile] as the compound, how does the melting point read?
Answer: 148 to 150 °C

Question: With `N#Cc1cnc2cc(-c3csc(C=O)c3)ccc2c1Nc1ccc(Cl)cc1Cl` [Example 44, 4-(2,4-dichloroanilino)-7-(5-formyl-3-thienyl)-3-quinolinecarbonitrile] as the compound, how does the melting point read?
Answer: 286 to 288 °C

Question: Which melting point does the source give for `Cn1ccnc1Sc1ccc(Nc2c(C#N)cnc3cc(-c4ccc(CN5CCN(CCO)CC5)cn4)ccc23)cc1Cl` [Example 217, 4-({3-chloro-4-[(1-methyl-1H-imidazol-2-yl)sulfanyl]phenyl}amino)-7-(5-{[4-(2-hydroxy-ethyl)-1-piperazinyl]-methyl}-2-pyridinyl)-3-quinolinecarbonitrile] here?
Answer: 160 to 163 °C

Question: Which melting point does the source give for `N#Cc1cnc2cc(C#CCO)ccc2c1Nc1ccc(Cl)cc1Cl` [Example 14, 4-(2,4-Dichloroanilino)-7-(3-hydroxy-1-propynyl)-3-quinolinecarbonitrile] here?
Answer: 251 to 253 °C

Question: For `CC(C)N1CCN(Cc2ccc(-c3ccc4c(Nc5ccc(Sc6nccn6C)c(Cl)c5)c(C#N)cnc4c3)cc2)CC1` [Example 98, 4-({3-Chloro-4-[(1-methyl-1H-imidazol-2-yl)sulfanyl]phenyl}amino)-7-{4-[(4-isopropyl-1-piperazinyl)methyl]phenyl}-3-quinolinecarbonitrile], which melting point is on record?
Answer: 193 to 195 °C

Question: For `COc1cc(Nc2c(C#N)cnc3cc(-c4ccc(N5CCOCC5)nc4)ccc23)c(Cl)cc1Cl` [Example 185, 4-(2,4-Dichloro-5-methoxyanilino)-7-[6-(4-morpholinyl)-3-pyridinyl]-3-quinolinecarbonitrile], which melting point is on record?
Answer: > 260 °C

Question: Which melting point does the source give for `CCN1CCN(c2ccc(-c3ccc4ncc(C#N)c(Nc5ccc(Sc6nccn6C)c(Cl)c5)c4c3)nc2)CC1` [Example 181, 4-({3-Chloro-4-[(1-methyl-1H-imidazol-2-yl)sulfanyl]phenyl}amino)-6-[5-(4-ethyl-1-piperazinyl)-2-pyridinyl]-3-quinolinecarbonitrile] here?
Answer: 150 °C (dec.)

Question: For `CN1CCN(Cc2ccnc(-c3ccc4c(Nc5ccc(Sc6nccn6C)c(Cl)c5)c(C#N)cnc4c3)c2)CC1` [Example 206, 4-({3-Chloro-4-[(1-methyl-1H-imidazol-2-yl)sulfanyl]phenyl}amino)-7-{4-[(4-methyl-I -piperazinyl)methyl]-2-pyridinyl}-3-quinolinecarbonitrile], which melting point is on record?
Answer: 208 to 210 °C

Question: For `CN1CCN(Cc2ccc(-c3ccc4ncc(C#N)c(Nc5ccc(Sc6nccn6C)c(Cl)c5)c4c3)nc2)CC1` [Example 183, 4-({3-Chloro-4-[(1-methyl-1H-imidazol-2-yl)sulfanyl]phenyl}amino)-6-{5-[(4-methyl-1-piperazinyl)methyl]-2-pyridinyl}-3-quinolinecarbonitrile], which melting point is on record?
Answer: 260 to 262 °C
